“And” between values parts separate entries of the source, which are not always exact repeats. Equal entries are not always repeated. Inconclusive results and toxic doses are left out.
System: L1210 leukemia ip in BDF1 mice, survival T/C
Assay: NCI In Vivo Anticancer Drug Screen. Data for tumor model L1210 Leukemia (intraperitoneal) in B6D2F1 (BDF1) mice
Conditions: endpoint: mean survival time, higher = longer survival
Method in brief: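 Ratio derived from survival: compound-dosed mice over vehicle-dosed mice, all bearing a transplantable tumor.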

[1] = dose: 50.0 mg/kg/injection, schedule: Q01DX001 (ip), vehicle: saline
[2] = dose: 100.0 mg/kg/injection, schedule: Q01DX001 (ip), vehicle: saline
[3] = dose: 200.0 mg/kg/injection, schedule: Q01DX001 (ip), vehicle: saline
[4] = dose: 400.0 mg/kg/injection, schedule: Q01DX001 (ip), vehicle: saline
[5] = dose: 100.0 mg/kg/injection, schedule: Q01DX009 (ip), vehicle: saline with Tween-80
[6] = dose: 200.0 mg/kg/injection, schedule: Q01DX009 (ip), vehicle: saline with Tween-80
[7] = dose: 50.0 mg/kg/injection, schedule: Q01DX009 (ip), vehicle: saline with Tween-80
[8] = dose: 100.0 mg/kg/injection, schedule: Q01DX009 (ip), vehicle: Klucel (hydroxypropylcellulose) (HPC)
[9] = dose: 200.0 mg/kg/injection, schedule: Q01DX009 (ip), vehicle: Klucel (hydroxypropylcellulose) (HPC)
[10] = dose: 100.0 mg/kg/injection, schedule: Q04DX003 (ip), vehicle: saline with Tween-80
[11] = dose: 200.0 mg/kg/injection, schedule: Q04DX003 (ip), vehicle: saline with Tween-80
[12] = dose: 400.0 mg/kg/injection, schedule: Q04DX003 (ip), vehicle: saline with Tween-80
[13] = dose: 100.0 mg/kg/injection, schedule: Q04DX003 (ip), vehicle: Klucel (hydroxypropylcellulose) (HPC)
[14] = dose: 200.0 mg/kg/injection, schedule: Q04DX003 (ip), vehicle: Klucel (hydroxypropylcellulose) (HPC)
[15] = dose: 400.0 mg/kg/injection, schedule: Q01DX009 (ip), vehicle: Klucel (hydroxypropylcellulose) (HPC)
[16] = dose: 400.0 mg/kg/injection, schedule: Q04DX003 (ip), vehicle: Klucel (hydroxypropylcellulose) (HPC)
[17] = dose: 25.0 mg/kg/injection, schedule: Q01DX009 (ip), vehicle: saline with Tween-80
[18] = dose: 25.0 mg/kg/injection, schedule: Q01DX009 (ip), vehicle: Klucel (hydroxypropylcellulose) (HPC)
[19] = dose: 50.0 mg/kg/injection, schedule: Q01DX009 (ip), vehicle: Klucel (hydroxypropylcellulose) (HPC)

CC1OC2CC(=O)OC2C2=C1C(=O)c1c(O)c3c(c(O)c1C2=O)C1CC(O)C3(O)C(C)O1 (configuration not stated)
T/C (dose: 0.01 mg/kg/injection, schedule: Q01DX Z (ip), vehicle: saline): 112 % of control
T/C (dose: 0.03 mg/kg/injection, schedule: Q01DX Z (ip), vehicle: saline): 98 % of control
T/C (dose: 0.05 mg/kg/injection, schedule: Q01DX Z (ip), vehicle: saline): 90 % of control
T/C (dose: 0.1 mg/kg/injection, schedule: Q01DX Z (ip), vehicle: saline): 95 % of control
T/C (dose: 0.2 mg/kg/injection, schedule: Q01DX Z (ip), vehicle: saline): 95 % of control and 100 % of control
T/C (dose: 0.4 mg/kg/injection, schedule: Q01DX Z (ip), vehicle: saline): 90 % of control
T/C (dose: 0.8 mg/kg/injection, schedule: Q01DX Z (ip), vehicle: saline): 89 % of control
T/C (dose: 1.6 mg/kg/injection, schedule: Q01DX Z (ip), vehicle: saline): 94 % of control
T/C (dose: 3.2 mg/kg/injection, schedule: Q01DX Z (ip), vehicle: saline): 86 % of control
T/C (dose: 5.0 mg/kg/injection, schedule: Q01DX001 (ip), vehicle: saline): 102 % of control
T/C (dose: 6.4 mg/kg/injection, schedule: Q01DX Z (ip), vehicle: saline): 92 % of control
T/C (dose: 10.0 mg/kg/injection, schedule: Q01DX001 (ip), vehicle: saline): 102 % of control
T/C (dose: 12.0 mg/kg/injection, schedule: Q01DX Z (ip), vehicle: saline): 92 % of control
T/C (dose: 12.8 mg/kg/injection, schedule: Q01DX Z (ip), vehicle: saline): 87 % of control
T/C (dose: 20.0 mg/kg/injection, schedule: Q01DX001 (ip), vehicle: saline): 97 % of control
T/C (dose: 40.0 mg/kg/injection, schedule: Q01DX001 (ip), vehicle: saline): 97 % of control

CCOC(=O)CSc1c([N+](=O)[O-])c(C)nn1C
T/C (dose: 25.0 mg/kg/injection, schedule: Q01DX009 (ip), vehicle: water): 101 % of control
T/C (dose: 50.0 mg/kg/injection, schedule: Q01DX009 (ip), vehicle: water): 97 % of control
T/C (dose: 100.0 mg/kg/injection, schedule: Q01DX009 (ip), vehicle: water): 105 % of control
T/C (dose: 200.0 mg/kg/injection, schedule: Q01DX009 (ip), vehicle: water): 97 % of control
T/C (dose: 400.0 mg/kg/injection, schedule: Q01DX009 (ip), vehicle: water): 92 % of control

Nc1c(Cl)ncnc1Nc1ccccc1C(=O)O
T/C [1]: 102 % of control
T/C [2]: 93 % of control
T/C [3]: 98 % of control
T/C [4]: 98 % of control

OC[C@@H]1CC[C@H](n2cnc3c(Cl)ncnc32)C1
T/C [2]: 103 % of control
T/C [3]: 101 % of control
T/C [4]: 101 % of control

COC(=O)C(CSCSC)NC(=O)Nc1ccccc1C (configuration not stated)
T/C [5]: 102 % of control
T/C [6]: 90 % of control
T/C (dose: 400.0 mg/kg/injection, schedule: Q01DX009 (ip), vehicle: saline with Tween-80): 97 % of control

COc1ccc(OC)c2c1C=CCC=C2
T/C [7]: 95 % of control
T/C [5]: 88 % of control
T/C (dose: 100.0 mg/kg/injection, schedule: Q04DX003 (ip), vehicle: acetone): 117 % of control
T/C [6]: 102 % of control
T/C (dose: 200.0 mg/kg/injection, schedule: Q04DX003 (ip), vehicle: acetone): 94 % of control

O=C(Nc1ccccc1F)c1ccco1
T/C [8]: 100 % of control
T/C [9]: 103 % of control

CC1(C(=O)O)CC(Cl)=CCC1C(=O)O (configuration not stated)
T/C (dose: 100.0 mg/kg/injection, schedule: Q01DX001 (ip), vehicle: steriod suspending solution): 105 % of control
T/C (dose: 200.0 mg/kg/injection, schedule: Q01DX001 (ip), vehicle: steriod suspending solution): 103 % of control
T/C (dose: 400.0 mg/kg/injection, schedule: Q01DX001 (ip), vehicle: steriod suspending solution): 97 % of control

CC(C)(COCOCC(C)(C)[N+](=O)[O-])[N+](=O)[O-]
T/C [10]: 100 % of control
T/C [11]: 103 % of control
T/C [12]: 100 % of control

CCOC(=O)C1CC2C=CC1C2 (configuration not stated)
T/C [8]: 106 % of control
T/C [13]: 111 % of control
T/C [9]: 101 % of control
T/C [14]: 100 % of control
T/C [15]: 103 % of control
T/C [16]: 105 % of control

Nc1nc(-c2ccccc2)cs1
T/C [17]: 106 % of control
T/C (dose: 25.0 mg/kg/injection, schedule: Q04DX003 (ip), vehicle: saline with Tween-80): 100 % of control
T/C [7]: 108 % of control
T/C (dose: 50.0 mg/kg/injection, schedule: Q04DX003 (ip), vehicle: saline with Tween-80): 92 % of control
T/C [5]: 106 % of control
T/C [10]: 92 % of control

CCC(CCC(C)C1CCC2C3CC=C4CC(O)CCC4(C)C3CCC12C)C(C)C (configuration not stated) (tested in a mixture with another compound)
T/C (dose: 12.5 mg/kg/injection, schedule: Q#A X030 (ip), vehicle: water): 103 % of control
T/C [17]: 93 % of control
T/C (dose: 25.0 mg/kg/injection, schedule: Q#A X030 (ip), vehicle: water): 101 % of control
T/C [7]: 89 % of control
T/C (dose: 50.0 mg/kg/injection, schedule: Q#A X030 (ip), vehicle: water): 92 % of control
T/C [10]: 100 % of control
T/C (dose: 200.0 mg/kg/injection, schedule: Q01DX001 (ip), vehicle: water): 101 % of control
T/C (dose: 400.0 mg/kg/injection, schedule: Q01DX001 (ip), vehicle: water): 95 % of control

O=C(N/N=C/c1ccccc1)c1cc([N+](=O)[O-])cc([N+](=O)[O-])c1
T/C [13]: 90 % of control
T/C [14]: 108 % of control
T/C [16]: 101 % of control

S=C(NCc1ccc(Cl)c(Cl)c1)NCc1ccc(Cl)c(Cl)c1
T/C [18]: 103 % of control
T/C [19]: 101 % of control

COC(=O)C[N+]1(C)C2CCC1CC(Cl)C2 (configuration not stated)
T/C [2]: 101 % of control

CC#CCOCC(O)CCl (configuration not stated)
T/C (dose: 100.0 mg/kg/injection, schedule: Q01DX009 (ip), vehicle: saline): 94 % of control
T/C (dose: 100.0 mg/kg/injection, schedule: Q04DX003 (ip), vehicle: saline sonified): 108 % of control
T/C (dose: 200.0 mg/kg/injection, schedule: Q01DX009 (ip), vehicle: saline): 91 % of control
T/C (dose: 200.0 mg/kg/injection, schedule: Q04DX003 (ip), vehicle: saline sonified): 103 % of control
T/C (dose: 400.0 mg/kg/injection, schedule: Q01DX009 (ip), vehicle: saline): 105 % of control
T/C (dose: 400.0 mg/kg/injection, schedule: Q04DX003 (ip), vehicle: saline sonified): 117 % of control

Cc1cn2c(nc1=O)OC1CC2OC1CO (configuration not stated)
T/C (dose: 100.0 mg/kg/injection, schedule: Q01DX005 (ip), vehicle: saline): 122 % of control
T/C (dose: 200.0 mg/kg/injection, schedule: Q01DX005 (ip), vehicle: saline): 152 % of control

C#CCOS(=O)OCCCCCCCCCC (configuration not stated) (tested in a mixture with another compound)
T/C [13]: 105 % of control
T/C [14]: 91 % of control
T/C [16]: 94 % of control

C=CCC1C(=O)CC(C)(C)CC1=O
T/C [10]: 103 % of control
T/C [11]: 103 % of control
T/C [12]: 111 % of control

OB(O)c1ccccc1
T/C (dose: 100.0 mg/kg/injection, schedule: Q01DX009 (ip), vehicle: gum acacia): 105 % of control
T/C (dose: 200.0 mg/kg/injection, schedule: Q01DX009 (ip), vehicle: gum acacia): 99 % of control

CCC1(C)C(=O)N(C)C(=O)N1Br (configuration not stated)
T/C [18]: 96 % of control
T/C [19]: 101 % of control
T/C [13]: 97 % of control

CC(=O)Oc1cccc([N+](=O)[O-])c1
T/C (dose: 100.0 mg/kg/injection, schedule: Q04DX002 (ip), vehicle: Klucel (hydroxypropylcellulose) (HPC)): 107 % of control
T/C (dose: 200.0 mg/kg/injection, schedule: Q04DX002 (ip), vehicle: Klucel (hydroxypropylcellulose) (HPC)): 100 % of control
T/C (dose: 400.0 mg/kg/injection, schedule: Q04DX002 (ip), vehicle: Klucel (hydroxypropylcellulose) (HPC)): 92 % of control

CC(=O)N(C)c1ccc(NC(=O)C2CCCCC2C(=O)O)cc1 (configuration not stated)
T/C [8]: 98 % of control
T/C [9]: 95 % of control
T/C [15]: 93 % of control

C1=CCNCC1
T/C [2]: 101 % of control
T/C [3]: 98 % of control
T/C [4]: 103 % of control

COc1[nH]c(=O)ncc1Br
T/C [1]: 105 % of control
T/C [2]: 103 % of control
T/C [3]: 109 % of control
T/C [4]: 103 % of control

— PubChem BioAssay AID248 (DTP/NCI, 2004)
